Source: the supplement of paper PMC10307832

How the values were obtained:
Assay in all cases: relative viability (nuclei count vs DMSO), 5 days (fraction); higher = more cells survive
Ponatinib + Tozasertib = compound: Cc1ccc(C(=O)Nc2ccc(CN3CCN(C)CC3)c(C(F)(F)F)c2)cc1C#Cc1cnc2cccnn12 [Ponatinib] + Cc1cc(Nc2cc(N3CCN(C)CC3)nc(Sc3ccc(NC(=O)C4CC4)cc3)n2)n[nH]1 [Tozasertib] (partner 0.1 µM)
Outline: (§1)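 Medians of duplicate plates are given as relative viability. That measure is the nuclei count in treated wells divided by the count in vehicle wells. Counts were taken on 4× images of lung cancer cell lines in 1536-well plates, 5 days after pin-tool dosing the day after seeding with one drug alone or a fixed anchor-drug dose plus five library-drug doses (not always all listed) in √10 steps.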

Ponatinib + Pictilisib = compound: Cc1ccc(C(=O)Nc2ccc(CN3CCN(C)CC3)c(C(F)(F)F)c2)cc1C#Cc1cnc2cccnn12 [Ponatinib] + CS(=O)(=O)N1CCN(Cc2cc3nc(-c4cccc5[nH]ncc45)nc(N4CCOCC4)c3s2)CC1 [Pictilisib] (partner 1 µM)
Outline: as §1

Ponatinib + Crizotinib = compound: Cc1ccc(C(=O)Nc2ccc(CN3CCN(C)CC3)c(C(F)(F)F)c2)cc1C#Cc1cnc2cccnn12 [Ponatinib] + C[C@@H](Oc1cc(-c2cnn(C3CCNCC3)c2)cnc1N)c1c(Cl)ccc(F)c1Cl [Crizotinib] (partner 1 µM)
Outline: as §1

Ponatinib + Linsitinib = compound: Cc1ccc(C(=O)Nc2ccc(CN3CCN(C)CC3)c(C(F)(F)F)c2)cc1C#Cc1cnc2cccnn12 [Ponatinib] + C[C@]1(O)C[C@@H](c2nc(-c3ccc4ccc(-c5ccccc5)nc4c3)c3c(N)nccn32)C1 [Linsitinib] (partner 1 µM)
Outline: as §1

Ponatinib + OSI-027 = compound: Cc1ccc(C(=O)Nc2ccc(CN3CCN(C)CC3)c(C(F)(F)F)c2)cc1C#Cc1cnc2cccnn12 [Ponatinib] + COc1cccc2cc(-c3nc([C@H]4CC[C@H](C(=O)O)CC4)n4ncnc(N)c34)[nH]c12 [OSI-027] (partner 0.5 µM)
Outline: as §1

Cell Line | relative viability (Ponatinib + Tozasertib; first compound 0.002 µM) | relative viability (Ponatinib + Tozasertib; first compound 0.006325 µM) | relative viability (Ponatinib + Tozasertib; first compound 0.06325 µM) | relative viability (Ponatinib + Tozasertib; first compound 0.2 µM) | relative viability (Ponatinib + Pictilisib; first compound 0.002 µM) | relative viability (Ponatinib + Pictilisib; first compound 0.006325 µM) | relative viability (Ponatinib + Pictilisib; first compound 0.06325 µM) | relative viability (Ponatinib + Pictilisib; first compound 0.2 µM) | relative viability (Ponatinib + Crizotinib; first compound 0.002 µM) | relative viability (Ponatinib + Crizotinib; first compound 0.006325 µM) | relative viability (Ponatinib + Crizotinib; first compound 0.06325 µM) | relative viability (Ponatinib + Crizotinib; first compound 0.2 µM) | relative viability (Ponatinib + Linsitinib; first compound 0.002 µM) | relative viability (Ponatinib + Linsitinib; first compound 0.006325 µM) | relative viability (Ponatinib + Linsitinib; first compound 0.06325 µM) | relative viability (Ponatinib + Linsitinib; first compound 0.2 µM) | relative viability (Ponatinib + OSI-027; first compound 0.002 µM) | relative viability (Ponatinib + OSI-027; first compound 0.006325 µM) | relative viability (Ponatinib + OSI-027; first compound 0.06325 µM) | relative viability (Ponatinib + OSI-027; first compound 0.2 µM)
NCI-H2126 | 0.868 | 0.836 | 0.954 | 0.754 | 0.513 | 0.504 | 0.587 | 0.617 | 0.97 | 1.02 | 1.1 | 1.03 | 0.735 | 0.703 | 0.793 | 0.809 | 0.779 | 0.818 | 0.845 | 0.563
NCI-H2228 | 0.225 | 0.286 | 0.161 | 0.234 | 0.606 | 0.698 | 0.401 | 0.319 | 0.434 | 0.41 | 0.385 | 0.234 | 0.652 | 0.711 | 0.874 | 0.73 | 0.474 | 0.431 | 0.705 | 0.376
NCI-H2347 | 0.473 | 0.669 | 0.417 | 0.51 | 0.677 | 0.849 | 0.692 | 0.414 | 0.694 | 0.885 | 0.668 | 0.688 | 0.913 | 0.918 | 1.05 | 0.974 | 0.373 | 0.421 | 0.371 | 0.239
NCI-H2405 | 0.728 | 0.809 | 0.711 | 0.681 | 0.388 | 0.574 | 0.497 | 0.403 | 0.75 | 0.917 | 0.821 | 0.732 | 0.98 | 0.958 | 0.903 | 0.712 | 0.613 | 0.642 | 0.605 | 0.631
NCI-H3122 | 0.43 | 0.421 | 0.382 | 0.359 | 0.635 | 0.7 | 0.635 | 0.73 | 0.267 | 0.278 | 0.315 | 0.366 | 0.982 | 1.02 | 1.01 | 1.06 | 1 | 0.988 | 1.02 | 0.834
PC-3 [JPC-3] | 0.851 | 0.822 | 0.951 | 0.824 | 0.653 | 0.708 | 0.885 | 0.875 | 0.925 | 1.04 | 1.11 | 0.989 | 0.981 | 0.984 | 0.992 | 0.956 | 0.745 | 0.76 | 0.754 | 0.69
PC-14 | 0.527 | 0.628 | 0.609 | 0.472 | 0.637 | 0.691 | 0.794 | 0.702 | 0.866 | 0.901 | 0.966 | 0.946 | 0.927 | 0.91 | 1.13 | 1.01 | 0.747 | 0.778 | 0.933 | 0.699
RERF-LC-KJ | 0.476 | 0.474 | 0.405 | 0.281 | 0.618 | 0.582 | 0.781 | 0.68 | 0.816 | 0.766 | 0.928 | 0.834 | 0.842 | 0.907 | 0.914 | 0.827 | 0.603 | 0.576 | 0.688 | 0.522
SK-LU-1 | 0.349 | 0.419 | 0.321 | 0.218 | 0.518 | 0.63 | 0.523 | 0.377 | 0.804 | 0.948 | 0.963 | 0.777 | 0.943 | 1.19 | 1.18 | 0.997 | 0.334 | 0.345 | 0.344 | 0.248
SK-MES-1 | 0.828 | 0.909 | 0.964 | 0.842 | 0.392 | 0.409 | 0.569 | 0.48 | 0.978 | 1 | 1.04 | 0.92 | 0.99 | 1.12 | 1.12 | 1.07 | 0.566 | 0.653 | 0.717 | 0.537
SW 1573 | 0.202 | 0.16 | 0.162 | 0.176 | 0.489 | 0.515 | 0.526 | 0.566 | 0.707 | 0.876 | 0.887 | 0.608 | 0.838 | 0.775 | 0.777 | 0.819 | 0.567 | 0.483 | 0.718 | 0.522
